# ChEMBL document CHEMBL1201862, “PubChem BioAssay data set” (2004)
#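 Dose response: 5 concentrations. Exposure: 48 h. Format: 96-well plates. Endpoint: linear interpolation; highest concentration if not reached. GI50 = concentration required for 50% inhibition of growth.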 The source made the active and inactive calls. No stated cut-off is given here; in the data, active = GI50 up to about 1.1 µM and inactive = higher.
# Legend:
# Test in all cases: NCI anticancer screen, dose series, 48 h
# SW-620 = test system: SW-620
# K562 = test system: K562
# HOP-62 = test system: HOP-62
# Malme-3M = test system: Malme-3M
# SK-MEL-2 = test system: SK-MEL-2
# SF-268 = test system: SF-268
# SN12C = test system: SN12C
# NCI-H23 = test system: NCI-H23
# SK-MEL-28 = test system: SK-MEL-28
# OVCAR-5 = test system: OVCAR-5
# RPMI-8226 = test system: RPMI-8226
# HCT-116 = test system: HCT-116
# CCRF-CEM = test system: CCRF-CEM
# HCT-15 = test system: HCT-15
# SR = test system: SR
Compound,GI50 (SW-620),GI50 (K562),GI50 (HOP-62),GI50 (Malme-3M),GI50 (SK-MEL-2),GI50 (SF-268),GI50 (SN12C),GI50 (NCI-H23),GI50 (SK-MEL-28),GI50 (OVCAR-5),GI50 (RPMI-8226),GI50 (HCT-116),GI50 (CCRF-CEM),GI50 (HCT-15),GI50 (SR)
CC(C)=CC1CCc2ccccc2N1S(=O)(=O)c1ccc(C)cc1 (centres undefined),0.726 µM (active),0.59 µM (active),2.57 µM (inactive),1.67 µM (inactive),1.79 µM (inactive),2.93 µM (inactive),2.99 µM (inactive),1.4 µM (inactive),1.96 µM (inactive),14.8 µM (inactive),1.32 µM (inactive),0.982 µM (active),0.373 µM (active),1.09 µM,–
CC1NOC(=O)C1/N=N/c1ccccc1Br (centres undefined),13.8 µM (inactive),22.9 µM (inactive),43.9 µM (inactive),26.2 µM (inactive),16.2 µM (inactive),28.4 µM (inactive),24.5 µM (inactive),22.6 µM (inactive),31 µM (inactive),40.7 µM (inactive),28.8 µM (inactive),32.5 µM (inactive),25.8 µM (inactive),28.4 µM,25.1 µM (inactive)
COc1ccccc1NC(=O)C1=C(C)NC(C)=C(C(=O)Nc2ccccc2OC)C1c1ccccc1F,> 100 µM (inactive),36.2 µM (inactive),> 100 µM (inactive),63.1 µM (inactive),55.8 µM (inactive),> 100 µM (inactive),> 100 µM (inactive),> 100 µM (inactive),> 100 µM (inactive),> 100 µM (inactive),62.1 µM (inactive),59 µM (inactive),54.3 µM (inactive),98.6 µM,64.7 µM (inactive)
IC[P+]1(c2ccccc2)CCCC1,> 100 µM (inactive),35.9 µM (inactive),38.2 µM (inactive),44.5 µM (inactive),> 100 µM (inactive),–,14.3 µM (inactive),39.4 µM (inactive),50 µM (inactive),> 100 µM (inactive),29.8 µM (inactive),49.8 µM (inactive),54.2 µM (inactive),4.15 µM,33.4 µM (inactive)
CN/N=C(/CC(=O)c1sc(-n2nc(-c3ccccc3)cc2-c2ccccc2)nc1C)C(=O)Nc1ccc(Cl)c(Cl)c1,57.5 µM (inactive),20.4 µM (inactive),19.4 µM (inactive),78.3 µM (inactive),> 100 µM (inactive),35.2 µM (inactive),66.5 µM (inactive),23.7 µM (inactive),55.1 µM (inactive),16.1 µM (inactive),40.1 µM (inactive),34.5 µM (inactive),27.7 µM (inactive),31.3 µM,29.3 µM (inactive)
COc1ccc(-c2cc(O)c3cc4c(cc3n2)OCO4)c(OC)c1,47.3 µM (inactive),32 µM (inactive),73.1 µM (inactive),25.2 µM (inactive),55.1 µM (inactive),–,59.6 µM (inactive),70.3 µM (inactive),32.9 µM (inactive),–,28.3 µM (inactive),–,34.4 µM (inactive),38.9 µM,22.1 µM (inactive)
CNC(=O)OCc1nc(SC(C)C)n(C)c1COC(=O)NC,> 100 µM (inactive),> 69.8 µM (inactive),> 100 µM (inactive),> 100 µM (inactive),> 100 µM (inactive),> 91.6 µM (inactive),> 100 µM (inactive),> 100 µM (inactive),> 100 µM (inactive),> 100 µM (inactive),> 71.1 µM (inactive),> 100 µM (inactive),48.5 µM (inactive),> 100 µM,> 100 µM (inactive)
CC12CCC(C)(c3cc(O)c(O)cc31)c1cc(O)c(O)cc12,15.7 µM (inactive),7.06 µM (inactive),26.7 µM (inactive),18.3 µM (inactive),32.6 µM (inactive),18.2 µM (inactive),21.8 µM (inactive),27 µM (inactive),16.4 µM (inactive),22.3 µM (inactive),8.51 µM (inactive),–,2.92 µM (inactive),13.7 µM,–
Cn1cc(C2(C)CC(C)(C)c3c2n(C)c2ccccc32)c2ccccc21 (centres undefined),> 100 µM (inactive),83.8 µM (inactive),> 100 µM (inactive),> 100 µM (inactive),> 100 µM (inactive),> 100 µM (inactive),> 100 µM (inactive),95.3 µM (inactive),> 100 µM (inactive),–,40.2 µM (inactive),–,92.7 µM (inactive),> 100 µM,–
N/N=C1/C(=O)N(c2ccc(Cl)cc2)C(=O)C(=O)C1c1nc2ccccc2s1 (centres undefined),> 100 µM (inactive),60.3 µM (inactive),> 100 µM (inactive),> 100 µM (inactive),> 100 µM (inactive),> 100 µM (inactive),> 100 µM (inactive),> 100 µM (inactive),> 100 µM (inactive),> 100 µM (inactive),> 100 µM (inactive),> 100 µM (inactive),74.6 µM (inactive),72.1 µM,–
